IC50 data for 2 compounds are collected here from ChEMBL document CHEMBL1201862, “PubChem BioAssay data set” (2004).

Active and inactive are the calls of the source. Cut-off read from the data, not from the text of the source: actives have a measured IC50 and inactives only a lower limit.

The target of this assay is Envelope glycoprotein gp160 (Human immunodeficiency virus 1, UniProt Q6QLK5). Put plainly: cell-free HIV fusion peptide-binding blockers – biochemical, uHTS, fluorescence dequenching, […] (AID 1986).
Sequence of Envelope glycoprotein gp160 (Q6QLK5 whole entry, the tested form may be a part): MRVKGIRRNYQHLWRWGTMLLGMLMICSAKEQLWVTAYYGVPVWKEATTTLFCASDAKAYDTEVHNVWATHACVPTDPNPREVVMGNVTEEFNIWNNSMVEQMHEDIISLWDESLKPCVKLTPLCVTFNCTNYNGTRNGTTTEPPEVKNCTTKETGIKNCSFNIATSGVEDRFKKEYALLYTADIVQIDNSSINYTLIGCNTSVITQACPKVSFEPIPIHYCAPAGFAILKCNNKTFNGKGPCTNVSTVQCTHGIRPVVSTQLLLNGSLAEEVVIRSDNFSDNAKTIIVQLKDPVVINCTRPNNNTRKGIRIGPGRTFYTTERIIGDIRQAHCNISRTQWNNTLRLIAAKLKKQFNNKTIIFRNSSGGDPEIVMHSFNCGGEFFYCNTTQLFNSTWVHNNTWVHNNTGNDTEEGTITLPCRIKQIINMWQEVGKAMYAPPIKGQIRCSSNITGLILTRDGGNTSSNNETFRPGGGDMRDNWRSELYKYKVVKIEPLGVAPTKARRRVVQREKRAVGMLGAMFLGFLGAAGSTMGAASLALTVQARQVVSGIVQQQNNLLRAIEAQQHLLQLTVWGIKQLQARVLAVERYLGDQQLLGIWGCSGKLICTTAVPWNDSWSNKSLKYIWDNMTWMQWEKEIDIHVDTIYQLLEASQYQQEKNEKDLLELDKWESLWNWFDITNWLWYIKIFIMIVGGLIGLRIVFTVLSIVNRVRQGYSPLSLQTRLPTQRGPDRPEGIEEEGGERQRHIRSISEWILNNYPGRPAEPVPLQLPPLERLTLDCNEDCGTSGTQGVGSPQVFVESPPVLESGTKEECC

For `CC(c1ccccc1)N1C(=O)c2ccc(C(=O)Nc3ccc(Br)cc3C(=O)O)cc2C1=O` (configuration not stated), the half-maximal inhibitory concentration (IC50) (as a rule, the concentration that gives 50% inhibition) is 14.1 µM (active). The result for `CC(C)(C)c1ccc(S(=O)(=O)/N=C2\C=C(NS(=O)(=O)c3ccccc3)C(=O)c3ccccc32)cc1` reads 9.23 µM (active).
